Reference: patent publication US20260183408A1, “POLYPEPTIDE AND USE THEREOF” (SHENZHEN CHENYANG BIOLOGICAL TECHNOLOGY CO., LTD, priority 2022, published 2026)

How the values were obtained:
Type in all cases: in vivo, mouse
SPS mice = assay: Corticosterone, cortisol, DA and 5-HT levels in hippocampus and cortex
CRS mice [1] = assay: Tail suspension test (TST); details: single intraperitoneal 3 nmol/g, 1 hour after treatment, compared with TAT-treated mice (FIG. 12)
Experimental: (§1) The C57BL/6J mice were horizontally fixed for 6 h (from 10 to 16 o'clock) in a first acrylic restraint which is cylindrical and flat-bottomed (25×90 mm) every day for 2 weeks. The filter had several slots which could adapt to the size of each mouse to firmly restrain the mouse and inhibit body movements of the limb and trunk without causing pain. Immediately after being restrained, the mice were sent back to their cages. Unrestrained mice (control) stayed in their cages when no CRS procedure was performed. Neither the control mice nor the CRS mice could have access to food and water during the CRS exposure.
(§2) The C57BL/6J mice were subjected to various stress including restraint (for 4 h), cage tilting (for 45 times, with 12 h each time), light-dark cycle reversal (once), flash (for 12 h), and dirty cage (for 2 times, with 14 h each time). The protocol lasted 6 weeks. Control mice were not subjected to corresponding stress.
(§3) The mice were treated with TAT or TAT-D2R-KL (single intraperitoneal administration at 3 nmol/g in both cases). […]
TST: The mice were suspended with a tape to a position 40 cm above the floor within a rectangular compartment (length 55 cm× width 20 cm× depth 11.5 cm). A video was recorded for a total of 5 minutes, and the immobility time was recorded. […]

CRS mice [2] = assay: Open field test (OFT, total distance); details: single intraperitoneal 3 nmol/g, 1 hour after treatment (FIG. 12)
Experimental: as §1, §2, §3
OFT (for testing the total distance): The mice were acclimated to the experimental environment for 1 h and placed in a chamber of 45 cm×45 cm×30 cm. A video was recorded for 5 min to observe the motional activity of the mice. The total distance covered by the mice was measured, analyzed and expressed in millimeters.

CRS mice [3] = assay: Sucrose preference test (SPT); details: single intraperitoneal 3 nmol/g, compared with TAT-treated mice (FIG. 12)
Experimental: as §1, §2, §3
SPT (Sucrose preference test): A two-bottle choice paradigm was adopted. […] Finally, the volume of consumed water or sucrose solution was recorded and calculation was carried out with the following equation (I): […]

CRS mice [4] = assay: Elevated plus maze (EPM) test; details: single intraperitoneal 3 nmol/g, 1 hour later (FIG. 14)
Experimental: as §1
In order to evaluate the anti-anxiety-like effect of the polypeptide of the present invention, a CRS mouse model was established using the method in Example 6. […]
EPM: The device consisted of two open arms (25 cm×8 cm) and two closed arms (25 cm×8 cm) with the intersection as the central area (8 cm×8 cm), elevated 40 cm above the ground. One hour after the polypeptide treatment, the mice were placed in the central area facing an open arm, and their free movements were recorded for 5 min. […] The time spent in an open arm, the time spent in a closed arm, and the total moving distance of the mice were recorded.

“TAT-D2R-KL: C-terminus of the KL (K226-L240) region of D2R fused to the transduction domain of HIV-1 Tat protein (SEQ ID NO: 5)” was tested. Which level of cortisol (SPS mice; hippocampus and cortex of SPS mice (FIG. 9)) did it give?
Its level of cortisol is “did not significantly change”.

And the “level of DA” value (SPS mice; hippocampus and cortex of SPS mice (FIG. 10))?
Its value is “did not significantly change”.

And the elevated corticosterone level (SPS mice; hippocampus of SPS mice (FIG. 8))?
The elevated corticosterone level was “significantly reduced”.

What about the “upregulated 5-HT” value (SPS mice; hippocampus of SPS mice (FIG. 11)) of the same substance?
The value was “did not reduce”.

And the “immobility time (TST)” value (CRS mice [1])?
The value was “significantly reduced”.

And the “overall movement ability (total distance)” value (CRS mice [2])?
Its value is “had no effect”.

And the sucrose preference (CRS mice [3])?
Its sucrose preference is “significantly enhanced”.

What about the “time spent in an open arm” value (CRS mice [4]) of the same substance?
Its value is “significantly increased”.
